Experimental data taken from patent US20150094474A1, “AGRICULTURAL CHEMICALS” (Redx Pharma Ltd., priority 2012, published 2015).

Columns and labels:
Assay type in all cases: in vivo
peas = experiment: Herbicidal bioassay, peas (% necrosis)
Summary of the method: (§1)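 Lolium perenne, barley, peas and Chinese cabbage at 2-4 true leaf stage sprayed simultaneously with a Potter tower, compounds in DMSO at six concentrations (0.05% to 0.0001%). Phytotoxicity scored as % necrosis per EPPO PP1/135 at set intervals; five replicates per treatment and species; DMSO and water controls.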

barley = experiment: Herbicidal bioassay, barley (% necrosis)
Summary of the method: as §1

Lolium perenne = experiment: Herbicidal bioassay, Lolium perenne / rye grass (% necrosis)
Experimental: A laboratory bioassay was conducted to screen ten compounds (Fluazifop (25); Ethyl fluazifop (62); five fluazifop analogues: 27, 28, 63, 64 and 65; mesofulfuron (6); and two mesosulfuron analogues: 8 and 61. for activity against Lolium perenne, barley, peas and Chinese cabbage. Compounds were diluted in DMSO. Controls were performed using both DMSO and water.
Plants were obtained as seeds and were grown to the 2-4 true leaf stage. Plants were grown individually in seed trays. Each plant (in an approximately 3 cm diameter plug) was then detached from the tray for spraying. Environmental conditions were closely monitored and recorded and were within the optimal range of the target species.
The compounds were screened at a range of six concentrations, eg. 0.05%, 0.01%, 0.005%, 0.001%, 0.0005% and 0.0001%. Treatments will be applied directly onto the plants, using a potter tower.
One plant of each type will be sprayed using a potter tower. The 4 different types of weeds will be placed in a 10 cm diameter area underneath the potter sprayer and sprayed simultaneously. The growth of the plants and any Phytotoxicity effects will then be assessed at specified growth intervals, according to EPPO guideline PP1/135. Five replicates will be performed for each treatment, for each species.

CCOC(=O)C(C)Oc1ccc(Oc2ccc(C(F)(F)F)cn2)cc1 (stereo not drawn) [Fluazifop Ethyl ester (62)]
B (50%-80% necrosis): Sum of % necrosis in Peas (peas; Dose 0.000005, Day 14) | Sum of % necrosis in Peas (peas; Dose 0.000005, Day 21) | Sum of % necrosis in Peas (peas; Dose 0.00001, Day 10) | Sum of % necrosis in Peas (peas; Dose 0.00005, Day 10) | Sum of % necrosis in Peas (peas; Dose 0.0001, Day 10) | Sum of % necrosis in barley (barley; Dose 0.00001, Day 21) | Sum of % necrosis in barley (barley; Dose 0.00005, Day 21) | Sum of % necrosis in Rye grass (Lolium perenne; Dose 0.00005, Day 21)
C (less than 50% necrosis): Sum of % necrosis in Peas (peas; Dose 0.000001, Day 0) | Sum of % necrosis in Peas (peas; Dose 0.000001, Day 1) | Sum of % necrosis in Peas (peas; Dose 0.000001, Day 3) | Sum of % necrosis in Peas (peas; Dose 0.000001, Day 7) | Sum of % necrosis in Peas (peas; Dose 0.000001, Day 10) | Sum of % necrosis in Peas (peas; Dose 0.000001, Day 14) | Sum of % necrosis in Peas (peas; Dose 0.000001, Day 21) | Sum of % necrosis in Peas (peas; Dose 0.000005, Day 0) | Sum of % necrosis in Peas (peas; Dose 0.000005, Day 1) | Sum of % necrosis in Peas (peas; Dose 0.000005, Day 3) | Sum of % necrosis in Peas (peas; Dose 0.000005, Day 7) | Sum of % necrosis in Peas (peas; Dose 0.000005, Day 10) | Sum of % necrosis in Peas (peas; Dose 0.00001, Day 0) | Sum of % necrosis in Peas (peas; Dose 0.00001, Day 1) | Sum of % necrosis in Peas (peas; Dose 0.00001, Day 3) | Sum of % necrosis in Peas (peas; Dose 0.00001, Day 7) | Sum of % necrosis in Peas (peas; Dose 0.00005, Day 0) | Sum of % necrosis in Peas (peas; Dose 0.00005, Day 1) | Sum of % necrosis in Peas (peas; Dose 0.00005, Day 3) | Sum of % necrosis in Peas (peas; Dose 0.00005, Day 7) | Sum of % necrosis in Peas (peas; Dose 0.0001, Day 0) | Sum of % necrosis in Peas (peas; Dose 0.0001, Day 1) | Sum of % necrosis in Peas (peas; Dose 0.0001, Day 3) | Sum of % necrosis in Peas (peas; Dose 0.0001, Day 7) | Sum of % necrosis in Peas (peas; Dose 0.0005, Day 0) | Sum of % necrosis in Peas (peas; Dose 0.0005, Day 1) | Sum of % necrosis in Peas (peas; Dose 0.0005, Day 3) | Sum of % necrosis in Peas (peas; Dose 0.0005, Day 7) | Sum of % necrosis in Peas (peas; Dose 0.0005, Day 10) | Sum of % necrosis in Peas (peas; Dose 0.0005, Day 14) | Sum of % necrosis in barley (barley; Dose 0.000001, Day 0) | Sum of % necrosis in barley (barley; Dose 0.000001, Day 1) | Sum of % necrosis in barley (barley; Dose 0.000001, Day 3) | Sum of % necrosis in barley (barley; Dose 0.000001, Day 7) | Sum of % necrosis in barley (barley; Dose 0.000001, Day 10) | Sum of % necrosis in barley (barley; Dose 0.000001, Day 14) | Sum of % necrosis in barley (barley; Dose 0.000001, Day 21) | Sum of % necrosis in barley (barley; Dose 0.000005, Day 0) | Sum of % necrosis in barley (barley; Dose 0.000005, Day 1) | Sum of % necrosis in barley (barley; Dose 0.000005, Day 3) | Sum of % necrosis in barley (barley; Dose 0.000005, Day 7) | Sum of % necrosis in barley (barley; Dose 0.000005, Day 10) | Sum of % necrosis in barley (barley; Dose 0.000005, Day 14) | Sum of % necrosis in barley (barley; Dose 0.000005, Day 21) | Sum of % necrosis in barley (barley; Dose 0.00001, Day 0) | Sum of % necrosis in barley (barley; Dose 0.00001, Day 1) | Sum of % necrosis in barley (barley; Dose 0.00001, Day 3) | Sum of % necrosis in barley (barley; Dose 0.00001, Day 7) | Sum of % necrosis in barley (barley; Dose 0.00001, Day 10) | Sum of % necrosis in barley (barley; Dose 0.00001, Day 14) | Sum of % necrosis in barley (barley; Dose 0.00005, Day 0) | Sum of % necrosis in barley (barley; Dose 0.00005, Day 1) | Sum of % necrosis in barley (barley; Dose 0.00005, Day 3) | Sum of % necrosis in barley (barley; Dose 0.00005, Day 7) | Sum of % necrosis in barley (barley; Dose 0.00005, Day 10) | Sum of % necrosis in barley (barley; Dose 0.00005, Day 14) | Sum of % necrosis in barley (barley; Dose 0.0001, Day 0) | Sum of % necrosis in barley (barley; Dose 0.0001, Day 1) | Sum of % necrosis in barley (barley; Dose 0.0001, Day 3) | Sum of % necrosis in barley (barley; Dose 0.0001, Day 7) | Sum of % necrosis in barley (barley; Dose 0.0001, Day 10) | Sum of % necrosis in barley (barley; Dose 0.0001, Day 14) | Sum of % necrosis in barley (barley; Dose 0.0005, Day 0) | Sum of % necrosis in barley (barley; Dose 0.0005, Day 1) | Sum of % necrosis in barley (barley; Dose 0.0005, Day 3) | Sum of % necrosis in barley (barley; Dose 0.0005, Day 7) | Sum of % necrosis in barley (barley; Dose 0.0005, Day 10) | Sum of % necrosis in barley (barley; Dose 0.0005, Day 14) | Sum of % necrosis in Rye grass (Lolium perenne; Dose 0.000001, Day 0) | Sum of % necrosis in Rye grass (Lolium perenne; Dose 0.000001, Day 1) | Sum of % necrosis in Rye grass (Lolium perenne; Dose 0.000001, Day 3) | Sum of % necrosis in Rye grass (Lolium perenne; Dose 0.000001, Day 7) | Sum of % necrosis in Rye grass (Lolium perenne; Dose 0.000001, Day 10) | Sum of % necrosis in Rye grass (Lolium perenne; Dose 0.000001, Day 14) | Sum of % necrosis in Rye grass (Lolium perenne; Dose 0.000001, Day 21) | Sum of % necrosis in Rye grass (Lolium perenne; Dose 0.000005, Day 0) | Sum of % necrosis in Rye grass (Lolium perenne; Dose 0.000005, Day 1) | Sum of % necrosis in Rye grass (Lolium perenne; Dose 0.000005, Day 3) | Sum of % necrosis in Rye grass (Lolium perenne; Dose 0.000005, Day 7) | Sum of % necrosis in Rye grass (Lolium perenne; Dose 0.000005, Day 10) | Sum of % necrosis in Rye grass (Lolium perenne; Dose 0.000005, Day 14) | Sum of % necrosis in Rye grass (Lolium perenne; Dose 0.000005, Day 21) | Sum of % necrosis in Rye grass (Lolium perenne; Dose 0.00001, Day 0) | Sum of % necrosis in Rye grass (Lolium perenne; Dose 0.00001, Day 1) | Sum of % necrosis in Rye grass (Lolium perenne; Dose 0.00001, Day 3) | Sum of % necrosis in Rye grass (Lolium perenne; Dose 0.00001, Day 7) | Sum of % necrosis in Rye grass (Lolium perenne; Dose 0.00001, Day 10) | Sum of % necrosis in Rye grass (Lolium perenne; Dose 0.00001, Day 14) | Sum of % necrosis in Rye grass (Lolium perenne; Dose 0.00001, Day 21) | Sum of % necrosis in Rye grass (Lolium perenne; Dose 0.00005, Day 0) | Sum of % necrosis in Rye grass (Lolium perenne; Dose 0.00005, Day 1) | Sum of % necrosis in Rye grass (Lolium perenne; Dose 0.00005, Day 3) | Sum of % necrosis in Rye grass (Lolium perenne; Dose 0.00005, Day 7) | Sum of % necrosis in Rye grass (Lolium perenne; Dose 0.00005, Day 10) | Sum of % necrosis in Rye grass (Lolium perenne; Dose 0.00005, Day 14) | Sum of % necrosis in Rye grass (Lolium perenne; Dose 0.0001, Day 0) | Sum of % necrosis in Rye grass (Lolium perenne; Dose 0.0001, Day 1) | Sum of % necrosis in Rye grass (Lolium perenne; Dose 0.0001, Day 3) | Sum of % necrosis in Rye grass (Lolium perenne; Dose 0.0001, Day 7) | Sum of % necrosis in Rye grass (Lolium perenne; Dose 0.0001, Day 10) | Sum of % necrosis in Rye grass (Lolium perenne; Dose 0.0005, Day 0) | Sum of % necrosis in Rye grass (Lolium perenne; Dose 0.0005, Day 1) | Sum of % necrosis in Rye grass (Lolium perenne; Dose 0.0005, Day 3) | Sum of % necrosis in Rye grass (Lolium perenne; Dose 0.0005, Day 7) | Sum of % necrosis in Rye grass (Lolium perenne; Dose 0.0005, Day 10) | Sum of % necrosis in Rye grass (Lolium perenne; Dose 0.0005, Day 14) | Sum of % necrosis in Rye grass (Lolium perenne; Dose 0.0005, Day 21)
A (over 80% necrosis): Sum of % necrosis in Peas (peas; Dose 0.00001, Day 14) | Sum of % necrosis in Peas (peas; Dose 0.00001, Day 21) | Sum of % necrosis in Peas (peas; Dose 0.00005, Day 14) | Sum of % necrosis in Peas (peas; Dose 0.00005, Day 21) | Sum of % necrosis in Peas (peas; Dose 0.0001, Day 14) | Sum of % necrosis in Peas (peas; Dose 0.0001, Day 21) | Sum of % necrosis in Peas (peas; Dose 0.0005, Day 21) | Sum of % necrosis in barley (barley; Dose 0.0001, Day 21) | Sum of % necrosis in barley (barley; Dose 0.0005, Day 21) | Sum of % necrosis in Rye grass (Lolium perenne; Dose 0.0001, Day 14) | Sum of % necrosis in Rye grass (Lolium perenne; Dose 0.0001, Day 21)
